By Kd is commonly meant a measure of binding affinity in units of concentration. A high value points to lower affinity.

For assay [1], the target named is T1, human thyroid hormone receptor TRα (TRα1) (Homo sapiens, UniProt P10827).
T1 construct: made in house; host or cells: Sf9 insect cells (baculovirus), crude lysate
T1 sequence (P10827 1-410 isoform P10827-2): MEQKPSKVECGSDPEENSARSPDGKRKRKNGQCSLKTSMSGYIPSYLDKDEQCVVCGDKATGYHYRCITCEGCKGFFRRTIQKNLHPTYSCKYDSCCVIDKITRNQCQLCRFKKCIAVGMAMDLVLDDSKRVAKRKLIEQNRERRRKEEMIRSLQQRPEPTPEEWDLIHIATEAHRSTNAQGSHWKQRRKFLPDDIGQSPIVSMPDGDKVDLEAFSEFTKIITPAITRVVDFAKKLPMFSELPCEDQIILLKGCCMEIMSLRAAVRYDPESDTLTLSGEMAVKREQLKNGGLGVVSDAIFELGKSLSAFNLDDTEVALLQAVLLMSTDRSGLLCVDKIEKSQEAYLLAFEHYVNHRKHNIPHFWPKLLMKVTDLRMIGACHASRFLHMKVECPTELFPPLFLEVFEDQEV
T1 sequence (P19793 1-462 partner): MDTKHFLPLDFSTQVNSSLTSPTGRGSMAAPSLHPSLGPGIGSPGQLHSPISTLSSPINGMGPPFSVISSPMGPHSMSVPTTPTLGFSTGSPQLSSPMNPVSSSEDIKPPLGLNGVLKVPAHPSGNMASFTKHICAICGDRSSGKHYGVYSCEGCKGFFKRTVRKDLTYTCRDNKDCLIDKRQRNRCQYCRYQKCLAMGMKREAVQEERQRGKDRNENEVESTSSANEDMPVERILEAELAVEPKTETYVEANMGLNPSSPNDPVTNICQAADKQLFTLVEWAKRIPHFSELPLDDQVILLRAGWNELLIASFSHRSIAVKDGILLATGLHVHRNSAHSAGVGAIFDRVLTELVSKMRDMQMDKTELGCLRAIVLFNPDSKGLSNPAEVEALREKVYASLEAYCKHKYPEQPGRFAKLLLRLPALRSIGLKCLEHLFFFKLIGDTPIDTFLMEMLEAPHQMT
Kind of assay: Receptor binding, TRα (125I-T3 displacement / SPA). How it is done: (§1) Methods: Baculoviruses expressing TRα1, TRβ1 and RXRα are generated using cDNA and other reagents from Invitrogen (Carlsbad, Calif.). To produce TR/RXR heterodimer proteins, the sf9 insect cells are first grown to a density of 15×10^5 cells/mL. TRα1 or TRβ1 and RXRα baculovirus stocks are added to the cell culture with a ratio of 1 to 1 (multiplicity of infection=10). The cells are harvested three days after the infection. […] The bound ^125I-T3 is counted with a scintillation counter.
(§2) Binding of compounds to either the TRα1 or TRβ1 are also performed by means of scintillation proximity assays (SPA). The SPA assay, a common method used for the quantitation of receptor-ligand equilibria, makes use of special beads coated with a scintillant and a capture molecule, copper, which binds to the histidine-tagged α or β receptor.

Assay [2] addresses T2, human thyroid hormone receptor TRβ (TRβ1) (Homo sapiens, UniProt P10828).
T2 construct: made in house; host or cells: Sf9 insect cells (baculovirus), crude lysate
T2 sequence (P10828 1-461): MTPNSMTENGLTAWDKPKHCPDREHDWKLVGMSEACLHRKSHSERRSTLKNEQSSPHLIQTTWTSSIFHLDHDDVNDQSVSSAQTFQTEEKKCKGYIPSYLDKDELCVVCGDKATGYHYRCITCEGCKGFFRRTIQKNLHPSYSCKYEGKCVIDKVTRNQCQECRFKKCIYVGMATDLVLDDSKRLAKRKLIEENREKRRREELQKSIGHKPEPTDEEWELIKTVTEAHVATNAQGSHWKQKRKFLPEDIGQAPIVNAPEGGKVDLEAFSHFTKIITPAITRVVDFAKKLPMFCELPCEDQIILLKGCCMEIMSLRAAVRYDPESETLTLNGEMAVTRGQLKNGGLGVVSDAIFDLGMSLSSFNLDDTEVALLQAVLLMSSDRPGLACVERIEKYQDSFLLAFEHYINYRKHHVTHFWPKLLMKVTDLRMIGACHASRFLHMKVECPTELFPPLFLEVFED
T2 sequence (P19793 1-462 partner): T1 sequence (P19793 1-462 partner)
Kind of assay: Receptor binding, TRβ (125I-T3 displacement / SPA). The conditions noted are these: for Ratio: TRα Kd / TRβ Kd. How it is done:
as §1, §2

Assay [3] is described as follows: PO 24 Hr. CF TPC decrease. The assay is classed as in vivo. As to conditions: dose 0.2 mg/kg. The source says:
Administering sulfonic acid-containing compounds that bind to a TR to animals can result in changes in lipids, including hepatic and/or plasma cholesterol levels; changes in lipoprotein levels including LDL-cholesterol, lipoprotein a (Lp(a)); changes in hepatic glycogen levels; and changes in energy expenditure as measured by changes in oxygen consumption and in some cases animal weight. For example, the effect on cholesterol may be determined using cholesterol fed animals such as normal rats and hamsters, or TRα^−/− knockout mice. Cholesterol may be measured using standard tests. Hepatic glycogen levels may be determined from livers isolated from treated animals. Changes in energy expenditure may be monitored by measuring changes in oxygen consumption (MVO2). Varieties of methods are well described in the literature and include measurement in the whole animal using Oxymax chambers (U.S. Pat. No. 6,441,015). Livers from treated rats can also be evaluated (Fernandez et al., Toxicol. Lett. 69(2):205-10 (1993)) as well as isolated mitochondria from liver (Carreras et al., Am. J. Physiol. Heart Circ. Physiol. 281(6):H2282-8 (2001)). Hepatocytes from treated rats can also be evaluated (Ismail-Beigi F et al., J Gen Physiol. 73(3):369-83 (1979)).

In the case of “3,5-dimethyl-4-(4′-hydroxy-3′-iso-propylbenzyl)phenyl-methanesulfonic acid [Compound 2]”, the figures for the Kd in assay [1] and in assay [2] were 1100 pM and 400 pM, respectively. Besides, the Ratio in assay [2] is on record as 2.8. In assay [3], the “PO 24 Hr. CF TPC Dec (d % of Cont)” value is reported as −42 d % of Cont.

The molecule `Cc1cc(CS(=O)(=O)O)cc(C)c1Cc1ccc(O)c(C(C)C)c1` [Compound 1] yielded a Kd in assay [1] of 12000 pM. In assay [2], binding was put at a Kd of 700 pM and the Ratio was found to be 17.1. For the same molecule, the “PO 24 Hr. CF TPC Dec (d % of Cont)” value in assay [3] is −45 d % of Cont.

These data come from patent US20120046364A1, “Novel Sulfonic Acid-Containing Thyromimetics, and Methods for Their Use” (METABASIS THERAPEUTICS, INC., priority 2009, published 2012).
